Data as given in paper PMC13416357 (Molecules, 2026).
Where two headings read alike, the source gives them in different places.

Key:
recombinant aSyn fibrils [1] = target: T1, recombinant aSyn fibrils (Homo sapiens, UniProt P37840); test: In vitro radioligand binding assay with [^3H]BF2846 in recombinant aSyn fibrils
Procedure: The affinity of the target compounds for aSyn was performed in recombinant human fibrils using an in vitro radioligand binding assay with [^3H]BF2846 as the radioligand, which binds to site 9 in recombinant aSyn fibrils [16].
In vitro radioligand biding assays were performed by using the pervious published method [12, 15] to measure the affinity of the target compounds for aSyn and Aβ. In brief, the radioligand for the aSyn assay was [^3H]BF2846 and the assay was conducted using recombinant fibrils. Three concentrations of test compounds (10 nM, 100 nM and 1 µM) were incubated with ~4 nM [^3H]BF2846 and 50 nM aSyn fibrils in a working buffer (50 mM Tris-HCl, 0.01% bovine serum albumin) at 37 °C for 1.5 h. The mixture (150 µL) was separated by filtration through a Unifilter-96 system (PerkinElmer, Shelton, CT, USA) and washed with an ice-cold buffer (10 mM Tris-HCl (pH 7.4), 15 mM NaCl and 20% EtOH) before scintillation counting. Total binding was defined in the absence of competitor, and non-specific binding was determined using 100 nM unlabeled BF2846. […] Data from three independent experiments were analyzed by non-linear regression in GraphPad Prism v.9.3.1 (GraphPad Inc., San Diego, CA, USA) to calculate Ki values using the equation, Ki = EC50/(1 + [radioligand]/Kd).

Aβ = target: T2, Aβ (Homo sapiens, UniProt P05067); design: method as in PMID 40256311; details: in vitro binding properties of lead M503-1619; cited from earlier work
T2 construct: from tissue; host or cells: Alzheimer disease (AD) brain tissue homogenate

recombinant aSyn fibrils [2] = target: T1, recombinant aSyn fibrils; design: method as in PMID 40256311; details: in vitro binding properties of lead M503-1619; cited from earlier work

T2 sequence (P05067 672-713 limits assumed): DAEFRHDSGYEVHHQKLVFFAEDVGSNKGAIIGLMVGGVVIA

| Ki (recombinant aSyn fibrils [1]) [nM] | Structure (SMILES) | Ki (Aβ) [nM] | Ki (recombinant aSyn fibrils [2]) [nM] |
| --- | --- | --- | --- |
| 41.9 ± 13.8 | COc1ccc(NC(=O)c2cnc(N3CCN(c4ncccn4)CC3)nc2N)cc1 [GT-9-40] | – | – |
| – | COc1ccc(NC(=O)c2cnc(N3CCN(c4ccccn4)CC3)nc2N)cc1 [Compound M503-1619] | 390 | 6.5 |
